The IC50 is the midpoint of a concentration-inhibition curve.

The results in this text go back to BindingDB's records for doi:10.1016/j.bmc.2017.07.045 (Punjabi University, 2017).

The assay is described as follows: Inhibition of P2Y12 in human platelet rich plasma assessed as reduction in ADP-induced platelet aggregation pre-incubated before ADP addition and measured after 10 mins by Bruker spectrophotometry.
On to `CCCn1nc2cccc([N+](=O)[O-])c2n1`, for which the IC50 stood at 1320 µM.
For `O=[N+]([O-])c1cccc2c1nnn2Cc1ccccc1`, the IC50 amounted to 810 µM.
`Cn1nnc2c([N+](=O)[O-])cccc21`: the IC50 worked out at 1840 µM.
In the case of `Cn1nc2cccc([N+](=O)[O-])c2n1` it was 1960 µM.
In the case of `Cn1nnc2cccc([N+](=O)[O-])c21` it was 1800 µM.
Turning to `CCn1nc2cccc([N+](=O)[O-])c2n1`, the IC50 came to 1620 µM.
In the case of `CCCn1nnc2c([N+](=O)[O-])cccc21` it was 1300 µM; in that of `CCCCn1nnc2c([N+](=O)[O-])cccc21`, 1050 µM; in that of `CCCCCn1nnc2c([N+](=O)[O-])cccc21`, 1070 µM.
Turning to `CCCCCn1nc2cccc([N+](=O)[O-])c2n1`, the IC50 turned out to be 1020 µM.
In the case of `CCCCCCn1nnc2c([N+](=O)[O-])cccc21` it was 1040 µM.
The same measure for `CCCCCCCn1nnc2c([N+](=O)[O-])cccc21`: 950 µM; for `CCCCCCCn1nc2cccc([N+](=O)[O-])c2n1`: 930 µM; for `CCCCCCCCn1nnc2c([N+](=O)[O-])cccc21`: 940 µM.
Take `O=[N+]([O-])c1cccc2c1nnn2CCCCl`: the IC50 was 910 µM.
The same measure for `O=[N+]([O-])c1cccc2nn(CCCCl)nc12`: 1260 µM; for `O=[N+]([O-])c1cccc2nn(Cc3ccccc3)nc12`: 820 µM.
In the case of `Cc1ccc(S(=O)(=O)n2nnc3c([N+](=O)[O-])cccc32)cc1` it was 860 µM.
The same measure for `CCn1nnc2c([N+](=O)[O-])cccc21`: 1500 µM.
For `CCCCn1nc2cccc([N+](=O)[O-])c2n1`, the concentration for half-maximal inhibition (IC50) turned out to be 1070 µM.
The same measure for `CCCCCCn1nc2cccc([N+](=O)[O-])c2n1`: 940 µM; for `CCCCCCCCn1nc2cccc([N+](=O)[O-])c2n1`: 920 µM.
Turning to `O=C(c1ccccc1)n1nnc2c([N+](=O)[O-])cccc21`, the IC50 stood at 650 µM.
In the case of `CCCSc1nc(N[C@@H]2C[C@H]2c2ccc(F)c(F)c2)c2nnn([C@@H]3C[C@H](OCCO)[C@@H](O)[C@H]3O)c2n1` [AR-C126532XX] it was 0.32 µM; in that of `c1ccc2[nH]nnc2c1` [CHEBI:75331], 7430 µM.
